Structures can show the parent of a compound that is named as a salt.

For orientation: IC50 means the concentration that gives 50% inhibition.

human SERT, sequence (P31645 whole entry): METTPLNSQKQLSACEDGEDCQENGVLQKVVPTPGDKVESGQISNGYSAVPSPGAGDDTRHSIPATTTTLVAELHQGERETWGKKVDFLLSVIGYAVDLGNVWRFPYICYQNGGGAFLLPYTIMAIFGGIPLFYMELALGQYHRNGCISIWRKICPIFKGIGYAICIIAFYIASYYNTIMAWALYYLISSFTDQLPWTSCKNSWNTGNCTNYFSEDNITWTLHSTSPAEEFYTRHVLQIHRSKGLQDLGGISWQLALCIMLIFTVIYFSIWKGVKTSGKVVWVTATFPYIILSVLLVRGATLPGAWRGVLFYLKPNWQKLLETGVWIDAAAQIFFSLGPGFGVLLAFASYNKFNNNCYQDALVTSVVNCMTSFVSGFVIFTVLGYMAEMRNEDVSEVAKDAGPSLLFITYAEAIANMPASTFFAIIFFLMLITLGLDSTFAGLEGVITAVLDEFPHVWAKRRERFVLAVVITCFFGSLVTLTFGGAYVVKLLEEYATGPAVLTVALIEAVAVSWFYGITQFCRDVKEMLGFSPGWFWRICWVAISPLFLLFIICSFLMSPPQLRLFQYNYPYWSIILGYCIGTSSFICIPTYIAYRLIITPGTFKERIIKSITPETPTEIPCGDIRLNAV

The target of the experiment is human SERT (Homo sapiens, UniProt P31645). As to the kind of experiment: Inhibitory activity assay against 5-HT transporter (neurotransmitter transporter uptake assay kit). In kind it is cell-based. The following applies: HEK-293 cells overexpressing human SERT; read-out: 5-HTT (IC50). The procedure:
In HEK-293 cells overexpressing human SERT, the transporter inhibitory effect of the test compound on human SERT was assayed using a Neurotransmitter transporter uptake assay kit (Molecular devices).
As for `CN(C)C1(c2ccccc2)CCc2ncsc2C1` (racemic) [rac-A233, N,N-dimethyl-6-phenyl-4,5,6,7-tetrahydrobenzo[d]thiazol-6-amine], the IC50 was 300 nM.

As for `CNC1(c2cccc(C(F)(F)F)c2)CCc2nc(N)sc2C1` (racemic) [rac-A94, 6-(3-trifluoromethylphenyl)-N^6-methyl-4,5,6,7-tetrahydrobenzothiazole-2,6-diamine hydrobromide], the IC50 is 4300 nM.

On to `COc1cccc(C2(N)CCc3nc(N)sc3C2)n1` (racemic) [rac-A310, 6-(6-methoxypyridin-2-yl)-4,5,6,7-tetrahydrobenzo[d]thiazole-2,6-diamine], for which the IC50 is 16000 nM.

Turning to `COc1cccc(C2(N)CCc3nc(Br)sc3C2)c1` (racemic) [rac-A318, 2-bromo-6-(3-methoxyphenyl)-4,5,6,7-tetrahydrobenzo[d]thiazol-6-amine hydrochloride], the IC50 amounted to 4600 nM.

Take `NC1(c2ccccc2)CCc2scnc2C1` (racemic) [rac-A134, 5-phenyl-4,5,6,7-tetrahydrobenzo[d]thiazol-5-amine]: the IC50 is 17000 nM.

For `CNC1(c2ccccc2)CCc2nc(O)sc2C1` (racemic) [rac-A279, 6-(methylamino)-6-phenyl-4,5,6,7-tetrahydrobenzo[d]thiazol-2-ol], the IC50 was 28 nM.

Turning to `COc1nc2c(s1)CC(N)(c1ccccc1)CC2` (racemic) [rac-A225, 2-methoxy-6-phenyl-4,5,6,7-tetrahydrobenzo[d]thiazol-6-amine], the IC50 was 1000 nM.

Consider `CN(C)C1(c2ccccc2)CCc2sc(N)nc2C1` (racemic) [rac-A249, N^5, N^5-dimethyl-5-phenyl-4,5,6,7-tetrahydrobenzo[d]thiazole-2,5-diamine], for which the IC50 worked out at 1000 nM.

Consider `COc1cccc(C2(N)CCc3nc(C(C)=O)sc3C2)c1` (racemic) [rac-A314, 1-(6-amino-6-(3-methoxyphenyl)-4,5,6,7-tetrahydrobenzo[d]thiazol-2-yl)ethan-1-one hydrochloride], for which the IC50 was 5600 nM.

Turning to `N[C@]1(c2ccccc2)CCc2ncsc2C1` [R-A14], the IC50 was determined as 67 nM.

For the compound `COc1cccc(C2(N)CCc3nc(C(N)=O)sc3C2)c1` (racemic) [rac-A315, 6-amino-6-(3-methoxyphenyl)-4,5,6,7-tetrahydrobenzo[d]thiazole-2-formamide], the IC50 was 6800 nM.

As for `COc1cccc(C2(N)CCc3c(sc(=O)n3C)C2)c1` (racemic) [rac-A299, 6-amino-6-(3-methoxyphenyl)-3-methyl-4,5,6,7-tetrahydrobenzo[d]thiazol-2-one hydrochloride], the IC50 was 520 nM.

Take `NC1(c2ccc(F)cc2)CCCc2cn[nH]c21` (racemic) [rac-A222, 7-(4-fluorophenyl)-4,5,6,7-tetrahydro-1H-indazol-7-amine]: the IC50 came to 10000 nM.

For the compound `CN(Cc1ccccc1)C1(c2ccccc2)CCc2[nH]ncc2C1` (racemic) [rac-A68, N-benzyl-N-methyl-5-phenyl-4,5,6,7-tetrahydro-1H-indazol-5-amine], the IC50 is 700 nM.

Consider `NC1(c2ccccc2)CCc2nc(C(F)(F)F)sc2C1` (racemic) [rac-A131, 6-phenyl-2-(trifluoromethyl)-4,5,6,7-tetrahydrobenzo[d]thiazol-6-amine hydrochloride], for which the IC50 turned out to be 3600 nM.

On to `Cc1ccccc1C1(N)CCc2nc(N)sc2C1` (racemic) [rac-A100, 6-(2-methylphenyl)-4,5,6,7-tetrahydrobenzothiazole-2,6-diamine], for which the IC50 is 17000 nM.

In the case of `COc1ccc(C2(N)CCc3nc(N)sc3C2)cc1` (racemic) [rac-A89, 6-(4-methoxyphenyl)-4,5,6,7-tetrahydrobenzothiazole-2,6-diamine], the half-inhibitory concentration (IC50) amounted to 7600 nM.

Consider `COc1cccc(C2(N)CCc3nc(O)sc3C2)c1` (racemic) [rac-A262, 6-amino-6-(3-methoxyphenyl)-4,5,6,7-tetrahydrobenzo[d]thiazol-2-ol], for which the IC50 worked out at 140 nM.

With `Nc1nc2c(s1)CC(N)(c1cccnc1)CC2` (racemic) [rac-A98, 6-(pyridin-3-yl)-4,5,6,7-tetrahydrobenzothiazole-2,6-diamine], the IC50 turned out to be 16000 nM.

Regarding `COc1cccc(C2(N)CCc3nc(OC)sc3C2)c1` (racemic) [rac-A317, 2-methoxy-6-(3-methoxyphenyl)-4,5,6,7-tetrahydrobenzo[d]thiazol-6-amine], the IC50 amounted to 5100 nM.

Take `CNC1(c2ccccc2F)CCc2nc(N)sc2C1` (racemic) [rac-A81, 6-(2-fluorophenyl)-N^6-methyl-4,5,6,7-tetrahydrobenzothiazole-2,6-diamine]: the IC50 stood at 94 nM.

Regarding `CNC1(c2cccc(OC)c2)CCc2ncsc2C1` (racemic) [rac-A273, 6-(3-methoxyphenyl)-N-methyl-4,5,6,7-tetrahydrobenzo[d]thiazol-6-amine hydrochloride], the IC50 was 1000 nM.

Turning to `NC1(c2cccc(O)c2)CCc2nc(O)sc2C1` (racemic) [rac-A306, 6-amino-6-(3-hydroxyphenyl)-4,5,6,7-tetrahydrobenzo[d]thiazol-2-ol], the IC50 was 200 nM.

Take `Nc1nc2c(s1)C[C@@](N)(c1ccccc1)CC2` [R-A1]: the IC50 turned out to be 1000 nM.

Turning to `CCOc1cccc(C2(N)CCc3nc(O)sc3C2)c1` (racemic) [rac-A295, 6-amino-6-(3-ethoxyphenyl)-4,5,6,7-tetrahydrobenzo[d]thiazol-2-ol hydrochloride], the IC50 was found to be 110 nM.

`NC1(c2ccccc2)CCc2nnsc2C1` (racemic) [rac-A244, 6-phenyl-4,5,6,7-tetrahydrobenzo[d][1,2,3]thiadiazol-6-amine hydrochloride]: the IC50 is 1500 nM.

For the compound `Nc1nc2c(s1)CC(N)(c1ccc(F)cc1F)CC2` (racemic) [rac-A235, 6-(2,4-difluorophenyl)-4,5,6,7-tetrahydrobenzo[d]thiazole-2,6-diamine], the IC50 amounted to 5900 nM.

For `N#Cc1cccc(C2(N)CCc3nc(N)sc3C2)c1` (racemic), the IC50 came out at 8900 nM.

With `NC1(c2ccccc2)CCc2nc(O)sc2C1` (racemic) [rac-A8, 6-amino-6-phenyl-4,5,6,7-tetrahydrobenzothiazol-2-ol], the IC50 stood at 7 nM.

For `CNC1(c2ccc(OC)c(OC)c2)CCc2nc(N)sc2C1` (racemic) [rac-A254, 6-(3,4-dimethoxyphenyl)-N^6-methyl-4,5,6,7-tetrahydrobenzo[d]thiazole-2,6-diamine], the IC50 amounted to 2000 nM.

As to `CNC1(c2ccc(F)cc2F)CCc2nc(N)sc2C1` (racemic) [rac-A236, 6-(2,4-difluorophenyl)-N^6-methyl-4,5,6,7-tetrahydrobenzo[d]thiazole-2,6-diamine], the IC50 was found to be 2800 nM.

Take `CSc1cccc(C2(N)CCc3nc(N)sc3C2)c1` (racemic) [rac-A304, 6-(3-methylthio)phenyl-4,5,6,7-tetrahydrobenzo[d]thiazole-2,6-diamine]: the IC50 is 3700 nM.

In the case of `NC1(c2ccccc2)CCc2oncc2C1` (racemic) [rac-A145, phenyl-4,5,6,7-tetrahydrobenzo[d]isoxazol-5-amine], the IC50 amounted to 600 nM.

With `CNC1(c2cccc(OC)c2)CCc2nc(N)sc2C1` (racemic) [rac-A88, 6-(3-methoxyphenyl)-N^6-methyl-4,5,6,7-tetrahydrobenzothiazole-2,6-diamine], the IC50 was found to be 900 nM.

`CCOc1nc2c(s1)CC(N)(c1ccccc1)CC2` (racemic) [rac-A257, 2-ethoxy-6-phenyl-4,5,6,7-tetrahydrobenzo[d]thiazol-6-amine]: the IC50 was 300 nM.

Consider `CCNc1nc2c(s1)CC(N)(c1cccc(OC)c1)CC2` (racemic) [rac-A301, N^2-ethyl-6-(3-methoxyphenyl)-4,5,6,7-tetrahydrobenzo[d]thiazole-2,6-diamine hydrochloride], for which the IC50 was 4000 nM.

Consider `CNC1(c2ccc(F)cc2)CCc2ncsc2C1` (racemic) [rac-A294, 6-(4-fluorophenyl)-N-methyl-4,5,6,7-tetrahydrobenzo[d]thiazol-6-amine], for which the IC50 was 1100 nM.

For `CCOc1cccc([C@@]2(N)CCc3nc(N)sc3C2)c1` [R-A228, (R)-6-(3-ethoxyphenyl)-4,5,6,7-tetrahydrobenzo[d]thiazole-2,6-diamine], the IC50 turned out to be 2900 nM.

Regarding `COc1cccc(C2(N)CCc3nc(C4CC4)sc3C2)c1` (racemic) [rac-A316, 2-cyclopropyl-6-(3-methoxyphenyl)-4,5,6,7-tetrahydrobenzo[d]thiazol-6-amine hydrochloride], the IC50 was determined as 4000 nM.

As for `COc1cccc(C2(N)CCc3nc(NC(C)=O)sc3C2)c1` (racemic) [rac-A300, N-(6-amino-6-(3-methoxyphenyl)-4,5,6,7-tetrahydrobenzo[d]thiazol-2-yl)acetamide], the IC50 came to 2100 nM.

For `Nc1nc2c(s1)CC(N)(c1ccc3ccccc3c1)CC2` (racemic) [rac-A118, 6-(naphthalen-2-yl)-4,5,6,7-tetrahydrobenzothiazole-2,6-diamine], the IC50 came to 2000 nM.

As for `COc1cccc(C2(N)CCc3nc(-c4ccccc4)sc3C2)c1` (racemic) [rac-A319, 6-(3-methoxyphenyl)-2-phenyl-4,5,6,7-tetrahydrobenzo[d]thiazol-6-amine hydrochloride], the IC50 is 980 nM.
